Measured values: article PMC4710522, “A Novel Triazolopyridine-Based Spleen Tyrosine Kinase Inhibitor That Arrests Joint Inflammation” (PLoS ONE, 2016)

How the values were obtained:
Experiment in all cases: SelectScreen kinase assay
Assay type in all cases: biochemical
FAK_h = biological target: T1, FAK_h (Homo sapiens, UniProt Q05397); conditions: KM ATP, read-out: % control
T1 construct: purchased Life Technologies (Invitrogen) SelectScreen, Z'-LYTE / Adapta
Procedure: (§1) Syk kinase mode of inhibition studies, including parameters described in Fig 1, were conducted on the LC3000 platform by Caliper Life Sciences (Hopkinton, MA) according to standard protocols developed by the supplier. […] Non-kinase enzyme assays and GPCR, ion channel, and transporter binding assays were run by CEREP (France). Non-GLP manual patch clamp hERG assays were run by ChanTest (Cleveland, Ohio). Vivid® Assay kits (Life Technologies) were used to measure the cytochrome P450 inhibition of the compound against CYP3A, CYP2C9, CYP2C19, CYP2D6, and CYP1A2, as described.
(§2) Kinase activity was measured using either the Z’-Lyte® or the Adapta® protocols as part of the SelectScreen™ profiling service offered at Life Technologies (Grand Island, NY). For the single point measurements (Part A), CC-509 was kept constant at 3 µM while ATP concentrations [ATP] used were at the KM for ATP (KM ATP) for that specific enyzme, at 10 or 100 µM ATP (10 ATP or 100 ATP, respectively), as indicated. Values expressed as percent control (% control) relative to DMSO-only wells (uninhibited, 100%).
(§3) Kinase activity was measured using either the Z’-Lyte® or the Adapta® protocols as part of the SelectScreen™ profiling service offered at Life Technologies (Grand Island, NY). […] Values expressed as percent control (% control) relative to DMSO-only wells (uninhibited, 100%).

PDGFR-alpha_h = PDGFR-alpha_h (Homo sapiens, UniProt P16234)
Sequence of PDGFR-alpha_h (P16234 24-1089): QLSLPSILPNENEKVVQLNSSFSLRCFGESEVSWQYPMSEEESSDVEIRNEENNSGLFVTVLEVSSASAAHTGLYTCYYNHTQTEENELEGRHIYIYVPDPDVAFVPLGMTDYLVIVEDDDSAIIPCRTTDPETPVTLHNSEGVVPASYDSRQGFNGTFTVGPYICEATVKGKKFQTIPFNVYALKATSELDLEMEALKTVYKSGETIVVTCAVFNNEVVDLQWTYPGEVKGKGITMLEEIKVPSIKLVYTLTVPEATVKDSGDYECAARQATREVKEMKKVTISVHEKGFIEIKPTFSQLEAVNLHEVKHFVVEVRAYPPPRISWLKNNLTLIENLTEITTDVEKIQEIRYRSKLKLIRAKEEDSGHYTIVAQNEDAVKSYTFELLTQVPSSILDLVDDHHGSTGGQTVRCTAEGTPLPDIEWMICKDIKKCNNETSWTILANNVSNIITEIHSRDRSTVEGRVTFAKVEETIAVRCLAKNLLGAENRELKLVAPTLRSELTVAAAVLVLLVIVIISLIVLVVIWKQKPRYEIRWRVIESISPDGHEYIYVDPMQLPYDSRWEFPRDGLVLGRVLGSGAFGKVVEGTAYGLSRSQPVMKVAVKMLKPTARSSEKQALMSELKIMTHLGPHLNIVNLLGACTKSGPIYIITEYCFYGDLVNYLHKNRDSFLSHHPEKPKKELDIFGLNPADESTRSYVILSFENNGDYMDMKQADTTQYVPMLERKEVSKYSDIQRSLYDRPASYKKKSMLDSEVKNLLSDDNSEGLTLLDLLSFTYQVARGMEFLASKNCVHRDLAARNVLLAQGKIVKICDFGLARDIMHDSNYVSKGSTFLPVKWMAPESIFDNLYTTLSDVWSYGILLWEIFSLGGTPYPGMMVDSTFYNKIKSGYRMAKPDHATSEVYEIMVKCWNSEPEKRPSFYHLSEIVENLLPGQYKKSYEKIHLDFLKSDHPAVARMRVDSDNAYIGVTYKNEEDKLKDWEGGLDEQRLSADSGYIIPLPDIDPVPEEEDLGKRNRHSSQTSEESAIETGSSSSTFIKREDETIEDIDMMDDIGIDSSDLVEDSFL
Procedure: as §1, §2, §3

CDK2_cyclinA_h = biological target: T2, CDK2_cyclinA_h (Homo sapiens, UniProt P24941); conditions: KM ATP, read-out: % control
T2 construct: purchased Life Technologies (Invitrogen) SelectScreen, Z'-LYTE / Adapta
Procedure: as §1, §2, §3

MAPKAP-K2_h = biological target: T3, MAPKAP-K2_h (Homo sapiens, UniProt P49137); conditions: KM ATP, read-out: % control
T3 construct: purchased Life Technologies (Invitrogen) SelectScreen, Z'-LYTE / Adapta
Procedure: as §1, §2, §3

EphB4_h = biological target: T4, EphB4_h (Homo sapiens, UniProt P54760); conditions: KM ATP, read-out: % control
T4 construct: purchased Life Technologies (Invitrogen) SelectScreen, Z'-LYTE / Adapta
T4 sequence (P54760 16-987): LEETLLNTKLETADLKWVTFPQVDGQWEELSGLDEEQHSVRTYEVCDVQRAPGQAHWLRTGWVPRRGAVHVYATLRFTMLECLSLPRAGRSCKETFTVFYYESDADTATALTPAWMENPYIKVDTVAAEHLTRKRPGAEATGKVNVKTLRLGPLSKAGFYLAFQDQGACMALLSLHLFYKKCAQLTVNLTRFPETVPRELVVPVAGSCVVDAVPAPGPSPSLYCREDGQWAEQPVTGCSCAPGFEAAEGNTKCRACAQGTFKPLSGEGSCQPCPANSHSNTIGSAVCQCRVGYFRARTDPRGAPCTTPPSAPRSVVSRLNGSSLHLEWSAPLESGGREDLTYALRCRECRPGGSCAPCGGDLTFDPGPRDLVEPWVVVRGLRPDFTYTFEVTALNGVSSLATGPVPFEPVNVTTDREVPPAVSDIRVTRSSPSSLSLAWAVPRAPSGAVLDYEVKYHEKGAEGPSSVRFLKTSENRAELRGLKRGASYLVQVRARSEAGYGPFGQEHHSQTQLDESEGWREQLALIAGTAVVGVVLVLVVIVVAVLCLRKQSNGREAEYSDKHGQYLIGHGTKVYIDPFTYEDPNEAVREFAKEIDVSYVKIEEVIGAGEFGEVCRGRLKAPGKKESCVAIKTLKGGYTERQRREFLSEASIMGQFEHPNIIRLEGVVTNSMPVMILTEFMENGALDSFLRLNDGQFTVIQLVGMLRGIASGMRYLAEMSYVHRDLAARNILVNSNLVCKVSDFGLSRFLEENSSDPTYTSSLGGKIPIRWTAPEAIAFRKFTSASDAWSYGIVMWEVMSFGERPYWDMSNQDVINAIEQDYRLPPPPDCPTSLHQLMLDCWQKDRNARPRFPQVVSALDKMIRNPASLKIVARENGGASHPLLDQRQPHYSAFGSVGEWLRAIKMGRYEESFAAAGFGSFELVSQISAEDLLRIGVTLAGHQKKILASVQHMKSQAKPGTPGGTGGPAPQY
Procedure: as §1, §2, §3

PTK2B_h = biological target: T5, PTK2B_h (Homo sapiens, UniProt Q14289); conditions: KM ATP, read-out: % control
T5 construct: purchased Life Technologies (Invitrogen) SelectScreen, Z'-LYTE / Adapta
Procedure: as §1, §2, §3

EGFR_L861Q_h = biological target: T6, EGFR_L861Q_h (Homo sapiens, UniProt P00533, L861Q); conditions: KM ATP, read-out: % control
T6 construct: purchased Life Technologies (Invitrogen) SelectScreen, Z'-LYTE / Adapta
Procedure: as §1, §2, §3

GRK7_h = biological target: T7, GRK7_h (Homo sapiens, UniProt Q8WTQ7); conditions: KM ATP, read-out: % control
T7 construct: purchased Life Technologies (Invitrogen) SelectScreen, Z'-LYTE / Adapta
T7 sequence (Q8WTQ7 whole entry): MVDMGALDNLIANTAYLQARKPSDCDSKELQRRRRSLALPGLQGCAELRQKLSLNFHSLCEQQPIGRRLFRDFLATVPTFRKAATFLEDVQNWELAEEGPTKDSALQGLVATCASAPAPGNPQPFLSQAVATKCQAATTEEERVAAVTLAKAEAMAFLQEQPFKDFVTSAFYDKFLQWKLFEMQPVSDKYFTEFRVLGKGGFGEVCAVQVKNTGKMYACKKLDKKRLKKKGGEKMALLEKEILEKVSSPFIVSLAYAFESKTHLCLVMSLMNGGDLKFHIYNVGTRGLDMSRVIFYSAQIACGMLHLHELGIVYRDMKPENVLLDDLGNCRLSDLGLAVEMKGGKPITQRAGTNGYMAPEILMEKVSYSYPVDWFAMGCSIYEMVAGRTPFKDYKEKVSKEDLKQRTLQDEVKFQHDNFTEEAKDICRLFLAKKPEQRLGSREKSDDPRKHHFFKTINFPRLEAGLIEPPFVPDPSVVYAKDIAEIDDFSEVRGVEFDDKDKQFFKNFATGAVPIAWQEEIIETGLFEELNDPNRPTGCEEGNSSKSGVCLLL
Procedure: as §1, §2, §3

Hgk_h = biological target: T8, Hgk_h (Homo sapiens, UniProt O95819); conditions: KM ATP, read-out: % control
T8 construct: purchased Life Technologies (Invitrogen) SelectScreen, Z'-LYTE / Adapta
Procedure: as §1, §2, §3

PKB-gamma_h = biological target: T9, PKB-gamma_h (Homo sapiens, UniProt Q9Y243); conditions: KM ATP, read-out: % control
T9 construct: purchased Life Technologies (Invitrogen) SelectScreen, Z'-LYTE / Adapta
Procedure: as §1, §2, §3

PrKX_h = biological target: T10, PrKX_h (Homo sapiens, UniProt P51817); conditions: KM ATP, read-out: % control
T10 construct: purchased Life Technologies (Invitrogen) SelectScreen, Z'-LYTE / Adapta
T10 sequence (P51817 whole entry): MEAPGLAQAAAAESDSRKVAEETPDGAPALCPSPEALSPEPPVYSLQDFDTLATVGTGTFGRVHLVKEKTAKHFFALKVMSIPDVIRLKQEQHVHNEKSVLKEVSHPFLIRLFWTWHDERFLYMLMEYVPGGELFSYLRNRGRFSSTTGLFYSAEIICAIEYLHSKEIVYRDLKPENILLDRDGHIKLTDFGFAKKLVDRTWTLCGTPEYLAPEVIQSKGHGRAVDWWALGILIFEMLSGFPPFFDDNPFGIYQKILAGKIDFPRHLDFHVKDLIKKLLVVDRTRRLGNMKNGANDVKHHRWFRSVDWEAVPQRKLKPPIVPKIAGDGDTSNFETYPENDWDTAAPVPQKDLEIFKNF
Procedure: as §1, §2, §3

LRRK2_h = biological target: T11, LRRK2_h (Homo sapiens, UniProt Q5S007); conditions: KM ATP, read-out: % control
T11 construct: purchased Life Technologies (Invitrogen) SelectScreen, Z'-LYTE / Adapta
Procedure: as §1, §2, §3

CaMKI-delta_h = biological target: T12, CaMKI-delta_h (Homo sapiens, UniProt Q8IU85); conditions: KM ATP, read-out: % control
T12 construct: purchased Life Technologies (Invitrogen) SelectScreen, Z'-LYTE / Adapta
Procedure: as §1, §2, §3

EphB1_h = biological target: T13, EphB1_h (Homo sapiens, UniProt P54762); conditions: KM ATP, read-out: % control
T13 construct: purchased Life Technologies (Invitrogen) SelectScreen, Z'-LYTE / Adapta
T13 sequence (P54762 18-984): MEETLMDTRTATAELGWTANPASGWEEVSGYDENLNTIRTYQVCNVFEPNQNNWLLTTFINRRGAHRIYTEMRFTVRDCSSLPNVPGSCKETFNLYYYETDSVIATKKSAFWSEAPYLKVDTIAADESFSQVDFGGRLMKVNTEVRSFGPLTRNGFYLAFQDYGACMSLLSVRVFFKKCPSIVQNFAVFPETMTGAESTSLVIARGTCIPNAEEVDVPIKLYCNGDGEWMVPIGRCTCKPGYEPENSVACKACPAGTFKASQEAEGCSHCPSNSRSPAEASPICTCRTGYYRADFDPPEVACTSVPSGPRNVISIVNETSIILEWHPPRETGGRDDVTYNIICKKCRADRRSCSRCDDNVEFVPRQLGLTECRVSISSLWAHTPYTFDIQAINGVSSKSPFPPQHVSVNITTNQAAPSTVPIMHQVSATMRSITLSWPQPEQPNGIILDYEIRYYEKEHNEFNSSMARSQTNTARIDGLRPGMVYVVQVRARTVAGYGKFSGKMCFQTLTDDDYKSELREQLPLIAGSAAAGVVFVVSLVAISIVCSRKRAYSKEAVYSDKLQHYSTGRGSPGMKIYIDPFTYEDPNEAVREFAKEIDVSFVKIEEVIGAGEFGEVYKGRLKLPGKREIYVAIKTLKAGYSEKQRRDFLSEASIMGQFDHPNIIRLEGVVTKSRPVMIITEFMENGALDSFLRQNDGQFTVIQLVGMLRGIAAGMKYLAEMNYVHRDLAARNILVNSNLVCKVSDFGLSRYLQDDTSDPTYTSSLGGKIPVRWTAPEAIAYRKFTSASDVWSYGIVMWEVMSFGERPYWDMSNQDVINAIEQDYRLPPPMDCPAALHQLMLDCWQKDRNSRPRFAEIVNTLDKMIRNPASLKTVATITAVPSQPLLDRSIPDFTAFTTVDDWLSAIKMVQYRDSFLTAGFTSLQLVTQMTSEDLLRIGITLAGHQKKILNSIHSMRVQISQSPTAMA
Procedure: as §1, §2, §3

EGFR_T790M_L858R_h = biological target: T14, EGFR_T790M_L858R_h (Homo sapiens, UniProt P00533, L858R/T790M); conditions: KM ATP, read-out: % control
T14 construct: purchased Life Technologies (Invitrogen) SelectScreen, Z'-LYTE / Adapta
Procedure: as §1, §2, §3

MRCK-alpha_h = biological target: T15, MRCK-alpha_h (Homo sapiens, UniProt Q5VT25); conditions: KM ATP, read-out: % control
T15 construct: purchased Life Technologies (Invitrogen) SelectScreen, Z'-LYTE / Adapta
Procedure: as §1, §2, §3

Hck_h = biological target: T16, Hck_h (Homo sapiens, UniProt P08631); conditions: KM ATP, read-out: % control
T16 construct: purchased Life Technologies (Invitrogen) SelectScreen, Z'-LYTE / Adapta
Procedure: as §1, §2, §3

Met_h = biological target: T17, Met_h (Homo sapiens, UniProt P08581); conditions: KM ATP, read-out: % control
T17 construct: purchased Life Technologies (Invitrogen) SelectScreen, Z'-LYTE / Adapta
Procedure: as §1, §2, §3

Abl_G250E_h = biological target: T18, Abl_G250E_h (Homo sapiens, UniProt P00519, G250E); conditions: KM ATP, read-out: % control
T18 construct: purchased Life Technologies (Invitrogen) SelectScreen, Z'-LYTE / Adapta
Procedure: as §1, §2, §3

CDK5_p25_h = biological target: T19, CDK5_p25_h (Homo sapiens, UniProt Q00535); conditions: KM ATP, read-out: % control
T19 construct: purchased Life Technologies (Invitrogen) SelectScreen, Z'-LYTE / Adapta
Procedure: as §1, §2, §3

ROCK-I_h = biological target: T20, ROCK-I_h (Homo sapiens, UniProt Q13464); conditions: KM ATP, read-out: % control
T20 construct: purchased Life Technologies (Invitrogen) SelectScreen, Z'-LYTE / Adapta
Procedure: as §1, §2, §3

HIPK1_h = biological target: T21, HIPK1_h (Homo sapiens, UniProt Q86Z02); conditions: KM ATP, read-out: % control
T21 construct: purchased Life Technologies (Invitrogen) SelectScreen, Z'-LYTE / Adapta
Procedure: as §1, §2, §3

MKK6_h = biological target: T22, MKK6_h (Homo sapiens, UniProt P52564); conditions: 100 µM ATP, read-out: % control
T22 construct: purchased Life Technologies (Invitrogen) SelectScreen, Z'-LYTE / Adapta
Procedure: as §1, §2, §3

Abl_T315I_h = biological target: T23, Abl_T315I_h (Homo sapiens, UniProt P00519, T315I); conditions: KM ATP, read-out: % control
T23 construct: purchased Life Technologies (Invitrogen) SelectScreen, Z'-LYTE / Adapta
Procedure: as §1, §2, §3

Fgr_h = biological target: T24, Fgr_h (Homo sapiens, UniProt P09769); conditions: KM ATP, read-out: % control
T24 construct: purchased Life Technologies (Invitrogen) SelectScreen, Z'-LYTE / Adapta
Procedure: as §1, §2, §3

CDK9_h = biological target: T25, CDK9_h (Homo sapiens, UniProt P50750); conditions: KM ATP, read-out: % control
T25 construct: purchased Life Technologies (Invitrogen) SelectScreen, Z'-LYTE / Adapta
Procedure: as §1, §2, §3

PRAK_h = biological target: T26, PRAK_h (Homo sapiens, UniProt Q8IW41); conditions: KM ATP, read-out: % control
T26 construct: purchased Life Technologies (Invitrogen) SelectScreen, Z'-LYTE / Adapta
Procedure: as §1, §2, §3

SRPK1_h = biological target: T27, SRPK1_h (Homo sapiens, UniProt Q96SB4); conditions: KM ATP, read-out: % control
T27 construct: purchased Life Technologies (Invitrogen) SelectScreen, Z'-LYTE / Adapta
Procedure: as §1, §2, §3

Tie2_h = biological target: T28, Tie2_h (Homo sapiens, UniProt Q02763); conditions: KM ATP, read-out: % control
T28 construct: purchased Life Technologies (Invitrogen) SelectScreen, Z'-LYTE / Adapta
Procedure: as §1, §2, §3

p38-gamma_h = biological target: T29, p38-gamma_h (Homo sapiens, UniProt P53778); conditions: KM ATP, read-out: % control
T29 construct: purchased Life Technologies (Invitrogen) SelectScreen, Z'-LYTE / Adapta
T29 sequence (P53778 whole entry): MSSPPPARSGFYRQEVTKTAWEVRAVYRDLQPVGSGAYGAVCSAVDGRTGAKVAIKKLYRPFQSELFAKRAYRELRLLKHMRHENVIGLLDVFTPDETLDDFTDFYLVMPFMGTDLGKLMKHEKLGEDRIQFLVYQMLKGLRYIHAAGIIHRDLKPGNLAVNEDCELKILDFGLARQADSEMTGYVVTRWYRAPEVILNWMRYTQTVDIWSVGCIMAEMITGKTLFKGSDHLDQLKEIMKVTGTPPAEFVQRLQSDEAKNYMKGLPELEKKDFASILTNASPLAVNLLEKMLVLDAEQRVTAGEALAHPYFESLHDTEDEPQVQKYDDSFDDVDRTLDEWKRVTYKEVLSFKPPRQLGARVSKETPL
Procedure: as §1, §2, §3

EphA8_h = biological target: T30, EphA8_h (Homo sapiens, UniProt P29322); conditions: KM ATP, read-out: % control
T30 construct: purchased Life Technologies (Invitrogen) SelectScreen, Z'-LYTE / Adapta
Procedure: as §1, §2, §3

PAK3_h = biological target: T31, PAK3_h (Homo sapiens, UniProt O75914); conditions: KM ATP, read-out: % control
T31 construct: purchased Life Technologies (Invitrogen) SelectScreen, Z'-LYTE / Adapta
Procedure: as §1, §2, §3

Plk2_h = biological target: T32, Plk2_h (Homo sapiens, UniProt Q9NYY3); conditions: KM ATP, read-out: % control
T32 construct: purchased Life Technologies (Invitrogen) SelectScreen, Z'-LYTE / Adapta
T32 sequence (Q9NYY3 whole entry): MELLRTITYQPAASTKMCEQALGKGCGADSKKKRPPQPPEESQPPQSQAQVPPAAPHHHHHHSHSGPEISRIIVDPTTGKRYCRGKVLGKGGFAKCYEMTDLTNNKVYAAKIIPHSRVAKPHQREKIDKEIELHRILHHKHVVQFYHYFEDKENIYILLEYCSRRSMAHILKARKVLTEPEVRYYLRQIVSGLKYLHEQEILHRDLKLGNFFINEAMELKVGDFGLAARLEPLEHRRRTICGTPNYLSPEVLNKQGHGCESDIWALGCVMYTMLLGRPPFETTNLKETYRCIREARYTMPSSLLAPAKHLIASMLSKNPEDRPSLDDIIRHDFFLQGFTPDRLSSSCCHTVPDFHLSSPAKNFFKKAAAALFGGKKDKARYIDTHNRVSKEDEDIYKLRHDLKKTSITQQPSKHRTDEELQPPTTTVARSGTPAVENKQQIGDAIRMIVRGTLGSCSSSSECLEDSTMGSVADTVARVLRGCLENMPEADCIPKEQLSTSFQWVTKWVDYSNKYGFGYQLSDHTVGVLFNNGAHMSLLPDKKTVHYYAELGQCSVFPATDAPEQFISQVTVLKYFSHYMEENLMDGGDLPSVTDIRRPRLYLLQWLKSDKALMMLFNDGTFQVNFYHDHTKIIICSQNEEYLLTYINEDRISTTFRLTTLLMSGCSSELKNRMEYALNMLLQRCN
Procedure: as §1, §2, §3

## c1cc(CC2CCOCC2)n2nc(Nc3ccc4c(NC5CCOCC5)n[nH]c4c3)nc2c1 [CC-509, [3-(2H-3,4,5,6-tetrahydropyran-4-ylamino)(1H-indazol-6-yl)][5-(2H-3,4,5,6-tetrahydropyran-4-ylmethyl)(2H-1,2,4-triazolo[1,5-a]pyridin-2-yl)]amine]
FAK_h
  remaining activity at 3 µM: 43%
PDGFR-alpha_h; 3 µM, KM ATP, read-out: % control
  remaining activity at 3 µM: 4%
PDGFR-alpha_h; 10-point dose-response, commercial vendor
  IC50: 204 nM
CDK2_cyclinA_h
  remaining activity at 3 µM: 64%
MAPKAP-K2_h
  remaining activity at 3 µM: 96%
EphB4_h
  remaining activity at 3 µM: 87%
PTK2B_h
  remaining activity at 3 µM: 50%
EGFR_L861Q_h
  remaining activity at 3 µM: 97%
GRK7_h
  remaining activity at 3 µM: 94%
Hgk_h
  remaining activity at 3 µM: 62%
PKB-gamma_h
  remaining activity at 3 µM: 99%
PrKX_h
  remaining activity at 3 µM: 95%
LRRK2_h
  remaining activity at 3 µM: 3%
CaMKI-delta_h
  remaining activity at 3 µM: 86%
EphB1_h
  remaining activity at 3 µM: 41%
EGFR_T790M_L858R_h
  remaining activity at 3 µM: 52%
MRCK-alpha_h
  remaining activity at 3 µM: 91%
Hck_h
  remaining activity at 3 µM: 71%
Met_h
  remaining activity at 3 µM: 66%
Abl_G250E_h
  remaining activity at 3 µM: 29%
CDK5_p25_h
  remaining activity at 3 µM: 82%
ROCK-I_h
  remaining activity at 3 µM: 70%
HIPK1_h
  remaining activity at 3 µM: 94%
MKK6_h
  remaining activity at 3 µM: 101%
Abl_T315I_h
  remaining activity at 3 µM: 34%
Fgr_h
  remaining activity at 3 µM: 21%
CDK9_h
  remaining activity at 3 µM: 31%
PRAK_h
  remaining activity at 3 µM: 91%
SRPK1_h
  remaining activity at 3 µM: 98%
Tie2_h
  remaining activity at 3 µM: 87%
p38-gamma_h
  remaining activity at 3 µM: 95%
EphA8_h
  remaining activity at 3 µM: 91%
PAK3_h
  remaining activity at 3 µM: 97%
Plk2_h
  remaining activity at 3 µM: 96%
